# Earlier results, collected in US20200061085A1, “COMPOSITION FOR TREATMENT, INHIBITION AND ATTENUATION OF MELANOMA VIRUS AND PREVENTION OF SKIN CANCERS” (priority 2018, published 2020).
# Conditions: STS given exogenously, 90 years of cumulative uses (renal, cyanide, eclampsia)
substance,measurement,value
sodium thiosulfate [STS],fatalities,no fatalities
